In patent publication US20060111284A1, “Method for treating cancer” (priority 2002, published 2006):

Experiments:
[1] = test system: cells; assay: Chemosensitizing by redox clamping agent co-administered with anti-cancer agent (FIG. 2); assay type: cell-based
Excerpt: The present invention further provides a method of reducing the effective dose of an anti-cancer agent necessary to be effective against cancer comprising administering a redox clamping agent in conjunction with an anti-cancer agent. It is preferred that the redox clamping agent is Mesna or DMSA. Redox clamping agents have the ability to maintain cells in a selected redox state. […] Redox clamping agents are useful in enhancing the therapeutic activity of chemotherapeutic agents such as butyrate that are dependent upon the redox state of the cell. Redox clamping agents are further useful in controlling hyperproliferation of cells and conditions associated with abnormal fluctuations in the redox state of cells. In one aspect, this invention provides a method of treating cancerous tumors comprising administering an effective dose of an anti-cancer agent in conjunction with a redox clamping agent, wherein the redox clamping agent acts as a chemoenhancer or a chemosensitizer. […] The administration of Mesna in conjunction with an anti-cancer agent may be as separate compounds or in a composition formulated and titrated to a dose and in a concentration that would achieve the optimal therapeutic dose of the anti-cancer agent providing a higher tumor cell kill with a lower dose of the anti-cancer agent than the typical therapeutic dose administered to a patient. […]

[2] = test system: H4 Rat Hepatoma cells; assay: Hydrogen peroxide stress in H4 Rat Hepatoma cells, antioxidant levels; assay type: cell-based; settings: 100 uM hydrogen peroxide for two hours, medium replaced, determined after 24 hours
Description: To further exemplify the redox clamping properties of Mesna, stress was induced in H4 Rat Hepatoma cells by treatment with 100 uM hydrogen peroxide for two hours and then the medium was removed and replaced with an anti-cancer agent. The cellular viability, as well as glutathione and metallothionein levels were determined after 24 hours in culture. […] The inhibition of stress induced upswing in antioxidant levels is characteristic of redox clamping agents.
(§1) In all of the experiments associated with the investigation of Mesna as a redox clamping agent, as a stand-alone anticancer agent as well as a chemosensitizer, the cell culture medium used was Swim's S-77 medium containing 12 uM cystine, instead of conventional levels of this amino acid (i.e., 50 uM). All other components of the medium were maintained at conventional concentrations. […] The ability of cystine to supply cells with cysteine, which then function as a precursor amino acid for glutathione synthesis, is thought to be responsible for the abnormally high basal levels of glutathione in cultured tumor cell lines.

[3] = test system: human tumor cell lines; assay: Growth inhibition of human tumor cell lines in culture; assay type: cell-based
Excerpt: The present invention provides a method of treating lymphoma, ovarian cancer, colorectal cancer, or gastric cancer comprising administering an effective amount of Mesna to a patient with lymphoma, ovarian cancer, colorectal cancer or gastric cancer. Mesna inhibits the growth of several human tumor cell lines in culture, and there are no strict relationships between the histopathological origin of the cell lines and the sensitivity of the cell lines to Mesna. […] It is further preferred that the patient be administered Mesna for a seven to ten day period. The doses may be cycled. The actual dose will be dependent on the size, type and location of the tumor as well as the overall status of the patient. It is preferred that high concentrations of Mesna be administered intravenously to achieve clamping initially, with further administration of oral doses to maintain the clamped state.
Cancer cell lines were growth inhibited when Mesna was administered on several consecutive days. Mesna has shown good activity in preventing the urotoxicity of oxazaphosphorine compound.
as §1

[4] = even in very high dose, 1000 mg/kg; cited from earlier work
[5] = test system: metastatic and/or relapsed tumors refractory to conventional therapy; assay: Clinical study of oral Mesna as single agent in refractory cancer patients; assay type: in vivo, human
Description: From December 1996 to March 1998 a study was performed on 14 ambulatory patients with metastatic and/or relapsed tumors refractory to conventional therapy. Eligibility criteria included histologically-confirmed advanced cancer, patients age was greater than 18 years, with a life expectancy no less than two months. The patients had not undergone major surgery within 2 weeks, or radiotherapy and/or chemotherapy within one month of the study. […] Exclusion criteria included active uncontrolled infection, pregnancy, lactation and any other co-existing medical problems severe enough to prevent full compliance with the study. Objectively measurable disease in the patients was required. All patients gave informed written consent before treatment. 600 mg/m^2 of Mesna was given by oral route four times a day, masked in orange juice for 10 consecutive days. Cycles were repeated every 15 days. No simultaneous chemotherapy and or radiotherapy and no other supportive care was given. The main objective of the study was to determine the anti-tumoral activity and toxicity of Mesna for heavily and or refractory pretreated cancer patients. […] The patients were all previously treated with between two and four different chemotherapy regimens. Mesna was administered as a single agent to all of the patients in the study. The toxic effects of Mesna and number of nodes were assessed during the first cycle of Mesna administration. […] For colorectal cancer a greater than 50% reduction of nodular lesions metastasized to liver was registered, during the second schedule of therapy. For gastric cancer a greater than 50% reduction of a subcutaneous nodule was measured during the second course of Mesna treatment.

[6] = within a few minutes after administration; cited from earlier work
[7] = test system: human LNCaP cells; assay: Two-step arsenic then Mesna treatment, apoptosis and glutathione in LNCaP cells; assay type: cell-based
Description: Human LNCaP cells, treated with 100 uM arsenic for 2 hours then washed and re-fed with normal medium, develop an elevation in cellular glutathione levels over a 24-hour period. Since exogenous antioxidants are known to be potent inhibitors of apoptotic mechanism, it is believed that internally-produced antioxidants such as glutathione function in a similar manner. […] Although Mesna increases apoptosis alone, the low concentrations of Mesna utilized in this two-step treatment protocol increased apoptosis minimally i.e., to 11 percent from a background of 3 to 5 percent in untreated cells.
as §1

[8] = 100 uM arsenic 2 hours, washed, then medium containing 100 uM Mesna

CCCC(=O)O [Butyrate]
concentration of butyrate that induces apoptosis ([1]; butyrate alone): greater than 3 mM | concentration of butyrate giving an effective kill ([1]; in the presence of a redox clamping agent): ≥ 0.5 mM

O=C(O)[C@@H](S)[C@@H](S)C(=O)O [DMSA]
stress-induced upswings in antioxidant levels (glutathione, metallothionein) [2]: oppose stress-induced upswings in antioxidant levels

O=S(=O)([O-])CCSSCCS(=O)(=O)[O-].[Na+].[Na+] [Dimesna, Disodium-2,2′-dithiobisethane sulfonate]
interference with the growth inhibitory activity of Mesna [3]: did not interfere

O=S(=O)([O-])CCS.[Na+] [Mesna, Sodium-2-mercaptoethane sulphonate]
stress-induced upswings in antioxidant levels (glutathione, metallothionein) [2]: oppose stress-induced upswings in antioxidant levels | pharmacological and toxicological character [4]: relatively inert | reduction of a subcutaneous nodule, gastric cancer ([5]; 600 mg/m^2 oral four times a day, 10 days, second course): greater than 50% | reduction of nodular lesions metastasized to liver, colorectal cancer ([5]; 600 mg/m^2 oral four times a day, 10 days, second schedule of therapy): greater than 50% | objective response ([5]; lung cancer, soft tissue sarcoma, skin metastases of unknown origin, bladder cancer, melanoma, cancer of the cervix): No objective responses | clinical response, ovarian cancer ([5]; two patients, 600 mg/m^2 oral four times a day, 10 days, second and third course): reduced ascites and pain | incorporation of 3H-thymidine, proline and uridine [3]: inhibited | growth of human tumor cell lines in culture ([3]; lymphoma, ovarian, colorectal, gastric cancer lines, administered on several consecutive days): inhibits growth | fraction of administered dose transformed into Mesna disulphide [6]: more than 90% | elevation in glutathione levels [7, 8]: dramatically diminished | fraction of apoptotic cells compared to arsenic alone [7, 8]: increased more than two-fold | apoptosis ([7]; Mesna alone at the low concentration of the two-step protocol, background 3 to 5 percent in untreated cells): 11%

[AsH3] [arsenic]
apoptosis of the cells ([7]; 100 uM arsenic for 2 hours, washed, re-fed with normal medium): 28%
